Source: patent publication US8304427B2, “Acylthiourea compound or salt thereof, and use thereof” (Taiho Pharmaceutical Co., Ltd., priority 2008, dated 2012)
Where two headings read alike, the source gives them in different places.

Columns and labels:
NUGC4 cells = test: Cell-proliferation inhibitory assay against NUGC4 cells (Crystal Violet); format: cell-based; conditions: Homo sapiens, NUGC-4, 72 h; NUGC4, cancer, c-Met status (+), 3 days
Experimental: Cell-Proliferation Inhibitory Assay Against NUGC4 Cells (Human Gastric Cancer Cell Strain in Which c-Met is Over-Expressed and Highly Activated), In Vitro Test
NUGC4 cell suspension (in a 10% FBS-containing RPMI 1640 medium (product of Wako Pure Chemical Industries Ltd.) or a FBS-containing DMEM medium (product of Nacalai Tesque, Inc.)) was inoculated to each well of a 96-well (flat-bottom) microplate in an amount of 2×10^3 cells (0.1 mL), and the plate was incubated in an incubator under 5% CO2 gas atmosphere at 37° C. for one day. Each of the compounds of the present invention and comparative compound 1 was dissolved in dimethyl sulfoxide to a concentration of 30 mM. The solution was diluted with 10% FBS-containing RPMI 1640 or DMEM medium, to a final test compound concentration of 60, 20, 6, 2, 0.6, or 0.2 μM. The thus-prepared test compound solution was added to each well of the NUGC4 cell culture plate at 0.1 mL/well, and the plate was incubated in an incubator under 5% CO2 gas atmosphere at 37° C. for 3 days. After culturing, 25% aqueous glutaraldehyde solution (product of Nacalai Tesque, Inc.) was added to each well at 20 μL, and the plate was left to stand at room temperature for 20 minutes, whereby cells were fixed. Thereafter, the plate was washed with tap water and dried. Then, aqueous 0.05% Crystal Violet/20% methanol solution (product of Wako Pure Chemical Industries Ltd.) was added to each well at 100 μL/well, and the plate was left to stand at room temperature for 20 minutes, whereby cells were stained. Thereafter, the plate was washed with tap water and dried. To each well, 0.05 M NaH2PO4/ethanol (1/1=v/v) (100 μL) was added, to thereby extract Crystal Violet. The absorbance of the extracted Crystal Violet was measured at 540 nm using a microplate reader, and the absorbance was employed as an index for living cell count. Percent inhibition was calculated by the following equation, and the 50% inhibition test compound concentration (IC50 (μM)) was calculated. Percent inhibition (%)=(C−T)/C×100 • T: Absorbance of well to which a test compound was added • C: Absorbance of well to which no test compound was added

HCT-116 = test: Cell proliferation inhibition test against c-Met low expressing tumor cells (HCT-116); format: cell-based; conditions: for IC50: Homo sapiens; for ratio HCT-116: IC50 HCT-116 relative to IC50 NUGC4
[1] = tested on: HAOSMC (human aortic smooth muscle cell); test: Cell proliferation inhibition test against normal cells HAOSMC; format: cell-based; conditions: for IC50: Homo sapiens, 72 h, read-out: IC50 HAOSMC; for ratio HAOSMC: IC50 HAOSMC relative to IC50 NUGC4
Experimental: [Worded in the source for another cell line; this cell line is reported under the same test.] (§1) The thus-prepared test compound solution was added to each well of the NUGC4 cell culture plate at 0.1 mL/well, and the plate was incubated in an incubator under 5% CO2 gas atmosphere at 37° C. for 3 days. […] Thereafter, the plate was washed with tap water and dried. Then, aqueous 0.05% Crystal Violet/20% methanol solution (product of Wako Pure Chemical Industries Ltd.) was added to each well at 100 μL/well, and the plate was left to stand at room temperature for 20 minutes, whereby cells were stained. Thereafter, the plate was washed with tap water and dried. To each well, 0.05 M NaH2PO4/ethanol (1/1=v/v) (100 μL) was added, to thereby extract Crystal Violet. The absorbance of the extracted Crystal Violet was measured at 540 nm using a microplate reader, and the absorbance was employed as an index for living cell count. […] Percent inhibition (%)=(C−T)/C×100 • T: Absorbance of well to which a test compound was added • C: Absorbance of well to which no test compound was added

[2] = tested on: HMEC (human skin microvascular endothelial cell); test: Cell proliferation inhibition test against normal cells HMEC; format: cell-based; conditions: for IC50: Homo sapiens, HMEC, 72 h, read-out: IC50 HMEC; for ratio HMEC: IC50 HMEC relative to IC50 NUGC4
Experimental: [Worded in the source for another cell line; this cell line is reported under the same test.] as §1

[3] = Dose determination study (body weight change, maximum tolerated dose); format: in vivo; conditions: nude mice, peroral
Experimental: […]. The maximum tolerated dose was calculated based on the change in body weight of the mice.
During the administration period, percent body weight change of mice (BWC %) was calculated. […] Thus, the half value of the toxicity expression dose was decided as a maximum tolerated dose.
BWC of mice was calculated by the following equation, and the change in mean BWC of each group during the administration period is shown in FIG. 1. BWC(%)=([(body weight of mouse on the day of weight measurement)−(body weight of mouse at grouping)]/(body weight of mouse at grouping))×100

c-Met = c-Met (Homo sapiens, UniProt P08581); test: c-Met inhibitory assay using AlphaScreen (Method A); format: biochemical; set-up: purchased Carna bio Co., Ltd 08-051; conditions: ATP 20 μM
c-Met, sequence (P08581 956-1390 limits assumed): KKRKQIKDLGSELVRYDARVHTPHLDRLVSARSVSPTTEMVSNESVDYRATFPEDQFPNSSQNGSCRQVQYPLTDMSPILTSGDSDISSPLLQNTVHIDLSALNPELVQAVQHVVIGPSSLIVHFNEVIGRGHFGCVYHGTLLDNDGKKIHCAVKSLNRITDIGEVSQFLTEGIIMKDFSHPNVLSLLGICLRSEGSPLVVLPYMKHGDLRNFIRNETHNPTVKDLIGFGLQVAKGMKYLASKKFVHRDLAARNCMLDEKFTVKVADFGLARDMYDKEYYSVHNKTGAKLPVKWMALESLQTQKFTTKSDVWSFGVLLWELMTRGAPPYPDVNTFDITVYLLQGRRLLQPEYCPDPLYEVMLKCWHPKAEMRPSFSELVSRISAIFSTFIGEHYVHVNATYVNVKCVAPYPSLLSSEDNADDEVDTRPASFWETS
Experimental: Inhibitory activity of compounds against c-Met kinase was determined through the following procedures. Method A) c-Met inhibitory assay using AlphaScreen™
A biotinylated peptide including a phosphorylated site of Pyk2 (Tyr402), which is reported as a bio-substrate in Clin. Cancer Res. vol. […] The mixture was allowed to react at room temperature for 20 minutes. EDTA was added to the reaction mixture to a final concentration of 50 mM, to thereby terminate reaction. […] The reaction was done for one hour at room temperature. Thereafter, the fluorescence intensity from the reaction mixture was measured using a multi-label counter (EnVision™, Perkin Elmer).

[4] = HCT-116, 72 h, read-out: IC50 HCT-116
[5] = 72 h, HCT-116, cancer, c-Met status (−), 3 days, read-out: IC50 HCT-116
[6] = HAOSMC, normal, c-Met status (−), 3 days
[7] = normal, c-Met status (−), 3 days

Structure (SMILES)	IC50 (NUGC4 cells) [µM]	IC50 (HCT-116; [4]) [µM]	IC50 (HCT-116; HCT-116, read-out: IC50 to c-Met low expressing and normal cell strains) [µM]	IC50 [1] [µM]	IC50 [2] [µM]	MTD at 14 days ([3]; mouse, in vivo, oral, half value of the toxicity expression dose) [mg/kg]	toxicity expression dose ([3]; 14 days, dose with ≧10% reduction in mean BWC) [mg/kg]	body weight change ([3]; once a day, 14 days, 100 mg/kg)	decrease in BWC ([3]; once a day, 14 days, 200 mg/kg) [%]	IC50 (HCT-116; [5]) [µM]	ratio HCT-116 (HCT-116)	IC50 [1, 6] [µM]	ratio HAOSMC [1]	IC50 [2, 7] [µM]	ratio HMEC [2]	IC50 (c-Met) [µM]
COc1cc2nccc(Oc3ccc(NC(=S)NC(=O)Cc4ccccc4)cc3F)c2cc1OC [Comp. Ex. 1, reference compound]	0.2	17	15 to 24	24	15	100	200	no decrease in body weight was observed	> 10							
COc1cc2nccc(Oc3ccc(NC(=S)NC(=O)Cc4ccc(F)cc4)cc3F)c2cc1C(=O)NC1CCCCNC1=O (stereo not shown) [Example 19, 4-(2-Fluoro-4-(3-(2-(4-fluorophenyl)acetyl)thioureido)phenoxy)-7-methoxy-N-(2-oxoazepan-3-yl)quinoline-6-carboxamide]	0.01									> 30	>3000	> 30	>3000	18	3000	0.338
COc1cc2nccc(Oc3ccc(NC(=S)NC(=O)Cc4ccccc4)cc3F)c2cc1C(=O)NCC(=O)N1CCOCC1 [Example 21, 4-(2-Fluoro-4-(3-(2-phenylacetyl)thioureido)phenoxy)-7-methoxy-N-(2-morpholino-2-oxoethyl)quinoline-6-carboxamide]	0.01									> 30	>3000	> 30	>3000	5	3000	0.118
COc1cc2nccc(Oc3ccc(NC(=S)NC(=O)Cc4ccccc4)cc3F)c2cc1C(=O)NCC(=O)N(C)C [Example 22, N-(2-(Dimethylamino)-2-oxoethyl)-4-(2-fluoro-4-(3-(2-phenylacetyl)thioureido)phenoxy)-7-methoxyquinoline-6-carboxamide]	0.01									> 30	>3000	> 30	>3000	> 30	>3000	0.25
COc1cc2nccc(Oc3ccc(NC(=S)NC(=O)Cc4ccccc4)cc3F)c2cc1C(=O)NCC(C)(C)O [Example 24, 4-(2-Fluoro-4-(3-(2-phenylacetyl)thioureido)phenoxy)-N-(2-hydroxy-2-methylpropyl)-7-methoxyquinoline-6-carboxamide]	0.02	23		> 30	16						1181		>1552		1552	0.033
COc1cc2nccc(Oc3ccc(NC(=S)NC(=O)Cc4ccccc4)cc3F)c2cc1C(=O)NCCS(C)(=O)=O [Example 27, 4-(2-Fluoro-4-(3-(2-phenylacetyl)thioureido)phenoxy)-7-methoxy-N-(2-(methylsulfonyl)ethyl)quinoline-6-carboxamide]	0.02									11	714	> 30	>1893	14	1894	0.059
